The values that follow come from PubChem BioAssay AID1745844 (Carcinogenic Potency Database (CPDB), 2022).

A word on the TD50: it is the dose at which the toxic effect under study appears in half of the subjects.

Activity calls are given as the source filed them. The rule behind the calls is not given here.

This data set deals with rodent lifetime carcinogenesis bioassay, tumor incidence TD50. The experiment in a line: chronic cancer bioassays in animals – CPDB, compiled studies (AID 1745844).

For `ClC(Cl)=C(Cl)Cl`, the TD50 runs as follows: (mouse, strain B6C3F1, females, by gavage, site: any site (literature study), lesion: several types, types named in the paper, dosed 78 weeks, study length 90 weeks) 98.1 mg/kg/day; (mouse, strain B6C3F1, females, by gavage, site: liver, lesion: hepatocellular adenoma + hepatocellular carcinoma + neoplastic nodule, dosed 78 weeks, study length 90 weeks) 75.6 mg/kg/day; (mouse, strain B6C3F1, females, by gavage, site: liver, lesion: hepatocellular carcinoma, dosed 78 weeks, study length 90 weeks) 75.6 mg/kg/day; (mouse, strain B6C3F1, females, by gavage, site: lung, lesion: alveolar/bronchiolar adenoma + alveolar/bronchiolar carcinoma, dosed 78 weeks, study length 90 weeks) 2950 mg/kg/day; (mouse, strain B6C3F1, females, inhaled, site: any site (literature study), lesion: several types, types named in the paper, dosed 103 weeks, study length 104 weeks) 211 mg/kg/day; (mouse, strain B6C3F1, females, inhaled, site: liver, lesion: hepatocellular adenoma + hepatocellular carcinoma + neoplastic nodule, dosed 103 weeks, study length 104 weeks) 188 mg/kg/day. In addition, the TD50 by setting is: (mouse, strain B6C3F1, females, inhaled, site: liver, lesion: hepatocellular adenoma + hepatocellular carcinoma, dosed 103 weeks, study length 104 weeks) 188 mg/kg/day; (mouse, strain B6C3F1, females, inhaled, site: liver, lesion: hepatocellular carcinoma, dosed 103 weeks, study length 104 weeks) 200 mg/kg/day; (mouse, strain B6C3F1, males, by gavage, site: any site (literature study), lesion: several types, types named in the paper, dosed 78 weeks, study length 90 weeks) 160 mg/kg/day; (mouse, strain B6C3F1, males, by gavage, site: liver, lesion: hepatocellular adenoma + hepatocellular carcinoma + neoplastic nodule, dosed 78 weeks, study length 90 weeks) 123 mg/kg/day; (mouse, strain B6C3F1, males, by gavage, site: liver, lesion: hepatocellular carcinoma, dosed 78 weeks, study length 90 weeks) 123 mg/kg/day; (mouse, strain B6C3F1, males, inhaled, site: any site (literature study), lesion: several types, types named in the paper, dosed 103 weeks, study length 104 weeks) 225 mg/kg/day. The TD50 runs as follows: (mouse, strain B6C3F1, males, inhaled, site: liver, lesion: hepatocellular adenoma + hepatocellular carcinoma + neoplastic nodule, dosed 103 weeks, study length 104 weeks) 190 mg/kg/day; (mouse, strain B6C3F1, males, inhaled, site: liver, lesion: hepatocellular adenoma + hepatocellular carcinoma, dosed 103 weeks, study length 104 weeks) 190 mg/kg/day; (mouse, strain B6C3F1, males, inhaled, site: liver, lesion: hepatocellular adenoma, dosed 103 weeks, study length 104 weeks) 668 mg/kg/day; (mouse, strain B6C3F1, males, inhaled, site: liver, lesion: hepatocellular carcinoma, dosed 103 weeks, study length 104 weeks) 162 mg/kg/day; (mouse, strain B6C3F1, males, inhaled, site: lung, lesion: alveolar/bronchiolar adenoma + alveolar/bronchiolar carcinoma, dosed 103 weeks, study length 104 weeks) 6050 mg/kg/day; (mouse, strain B6C3F1, males, inhaled, site: mesenteric lymph node + multiple organs + spleen + subcutaneous tissue, lesion: malignant lymphoma, NOS, dosed 103 weeks, study length 104 weeks) 681 mg/kg/day. Moreover, the TD50 is 560 mg/kg/day (mouse, strain Crj:BDF1, females, inhaled, site: liver, lesion: hepatocellular adenoma, dosed 104 weeks, study length 104 weeks); 1420 mg/kg/day (mouse, strain Crj:BDF1, females, inhaled, site: liver, lesion: hepatocellular carcinoma, dosed 104 weeks, study length 104 weeks); 396 mg/kg/day (mouse, strain Crj:BDF1, females, inhaled, site: liver, lesion: several types, types named in the paper, dosed 104 weeks, study length 104 weeks); 2330 mg/kg/day (mouse, strain Crj:BDF1, males, inhaled, site: Harderian gland, lesion: adenoma, dosed 104 weeks, study length 104 weeks); 602 mg/kg/day (mouse, strain Crj:BDF1, males, inhaled, site: liver, lesion: hepatocellular adenoma, dosed 104 weeks, study length 104 weeks); 555 mg/kg/day (mouse, strain Crj:BDF1, males, inhaled, site: liver, lesion: hepatocellular carcinoma, dosed 104 weeks, study length 104 weeks). Moreover, the TD50 by setting is: (mouse, strain Crj:BDF1, males, inhaled, site: liver, lesion: several types, types named in the paper, dosed 104 weeks, study length 104 weeks) 257 mg/kg/day; (rat, strain F344/DuCrj, females, inhaled, site: spleen, lesion: mononuclear-cell leukemia, dosed 104 weeks, study length 104 weeks) 1080 mg/kg/day; (rat, strain F344/DuCrj, males, inhaled, site: liver, lesion: hepatocellular adenoma, dosed 104 weeks, study length 104 weeks) 28300 mg/kg/day; (rat, strain F344/DuCrj, males, inhaled, site: spleen, lesion: mononuclear-cell leukemia, dosed 104 weeks, study length 104 weeks) 257 mg/kg/day; (rat, strain Fischer 344, females, inhaled, site: any site (literature study), lesion: several types, types named in the paper, dosed 103 weeks, study length 104 weeks) 869 mg/kg/day; (rat, strain Fischer 344, females, inhaled, site: multiple organs + spleen, lesion: mononuclear-cell leukemia, dosed 103 weeks, study length 104 weeks) 287 mg/kg/day. Moreover, the TD50 (rat, strain Fischer 344, males, inhaled, site: any site (literature study), lesion: several types, types named in the paper, dosed 103 weeks, study length 104 weeks) amounted to 77.7 mg/kg/day; the TD50 (rat, strain Fischer 344, males, inhaled, site: kidney + liver + multiple organs + spleen, lesion: tubular-cell adenoma + tubular-cell adenocarcinoma + mononuclear-cell leukemia, dosed 103 weeks, study length 104 weeks) stood at 90.8 mg/kg/day; the TD50 (rat, strain Fischer 344, males, inhaled, site: kidney, lesion: tubular-cell adenoma + tubular-cell adenocarcinoma, dosed 103 weeks, study length 104 weeks) is 504 mg/kg/day; the TD50 (rat, strain Fischer 344, males, inhaled, site: liver + multiple organs + spleen, lesion: mononuclear-cell leukemia, dosed 103 weeks, study length 104 weeks) is 101 mg/kg/day; the TD50 (rat, strain Fischer 344, males, inhaled, site: liver, lesion: hepatocellular adenoma + hepatocellular carcinoma + neoplastic nodule, dosed 103 weeks, study length 104 weeks) was 368 mg/kg/day; the TD50 (rat, strain Fischer 344, males, inhaled, site: testis, lesion: interstitial-cell tumor, dosed 103 weeks, study length 104 weeks) is 68.6 mg/kg/day. The TD50 by setting is: (rat, strain Osborne-Mendel, females, by gavage, site: any site (literature study), lesion: several types, types named in the paper, dosed 78 weeks, study length 110 weeks) 1710 mg/kg/day; (rat, strain Osborne-Mendel, males, by gavage, site: any site (literature study), lesion: several types, types named in the paper, dosed 78 weeks, study length 112 weeks) 3020 mg/kg/day.
Take `CCCCCN(N=O)C(=O)OCC`: the TD50 reads like this: (rat, strain Donryu, females, in drinking water, site: any site (literature study), lesion: several types, types named in the paper, dosed 52 weeks, study length 60 weeks) 0.336 mg/kg/day; (rat, strain Donryu, females, in drinking water, site: esophagus, lesion: papilloma, dosed 52 weeks, study length 60 weeks) 1.46 mg/kg/day; (rat, strain Donryu, females, in drinking water, site: esophagus, lesion: squamous-cell carcinoma, dosed 52 weeks, study length 60 weeks) 1.01 mg/kg/day; (rat, strain Donryu, females, in drinking water, site: forestomach, lesion: papilloma, dosed 52 weeks, study length 60 weeks) 1.54 mg/kg/day; (rat, strain Donryu, females, in drinking water, site: forestomach, lesion: squamous-cell carcinoma, dosed 52 weeks, study length 60 weeks) 2.81 mg/kg/day; (rat, strain Donryu, females, in drinking water, site: several sites, sites named in the paper, lesion: papilloma, dosed 52 weeks, study length 60 weeks) 1.7 mg/kg/day. Besides, the TD50 (rat, strain Donryu, females, in drinking water, site: several sites, sites named in the paper, lesion: squamous-cell carcinoma, dosed 52 weeks, study length 60 weeks) was 1.09 mg/kg/day.
`C=CCOC(=O)CC(C)C`: the TD50 by setting is: (mouse, strain B6C3F1, females, by gavage, site: all sites, lesion: malignant lymphoma, histiocytic type + malignant lymphoma, mixed type + malignant lymphoma, lymphocytic type, dosed 103 weeks, study length 106 weeks) 62.8 mg/kg/day; (mouse, strain B6C3F1, females, by gavage, site: all sites, lesion: malignant lymphoma, histiocytic type, dosed 103 weeks, study length 106 weeks) 238 mg/kg/day; (mouse, strain B6C3F1, females, by gavage, site: all sites, lesion: malignant lymphoma, mixed type, dosed 103 weeks, study length 106 weeks) 102 mg/kg/day; (mouse, strain B6C3F1, females, by gavage, site: any site (literature study), lesion: several types, types named in the paper, dosed 103 weeks, study length 106 weeks) 65.5 mg/kg/day; (mouse, strain B6C3F1, females, by gavage, site: lung, lesion: alveolar/bronchiolar adenoma + alveolar/bronchiolar carcinoma, dosed 103 weeks, study length 106 weeks) 4450 mg/kg/day; (mouse, strain B6C3F1, males, by gavage, site: any site (literature study), lesion: several types, types named in the paper, dosed 103 weeks, study length 106 weeks) 206 mg/kg/day. In addition, the TD50 (mouse, strain B6C3F1, males, by gavage, site: gastric mucosa, lesion: squamous-cell papilloma, dosed 103 weeks, study length 106 weeks) is 295 mg/kg/day (inactive); the TD50 (rat, strain Fischer 344, females, by gavage, site: any site (literature study), lesion: several types, types named in the paper, dosed 103 weeks, study length 106 weeks) is 43.5 mg/kg/day (inactive); the TD50 (rat, strain Fischer 344, males, by gavage, site: all sites, lesion: monocytic leukemia + malignant lymphoma, histiocytic type, dosed 103 weeks, study length 106 weeks) is 123 mg/kg/day; the TD50 (rat, strain Fischer 344, males, by gavage, site: all sites, lesion: monocytic leukemia, dosed 103 weeks, study length 106 weeks) is 149 mg/kg/day; the TD50 (rat, strain Fischer 344, males, by gavage, site: any site (literature study), lesion: several types, types named in the paper, dosed 103 weeks, study length 106 weeks) came out at 50.5 mg/kg/day; the TD50 (rat, strain Fischer 344, males, by gavage, site: liver, lesion: hepatocellular adenoma + hepatocellular carcinoma + neoplastic nodule, dosed 103 weeks, study length 106 weeks) was 264 mg/kg/day. Moreover, the TD50 (rat, strain Fischer 344, males, by gavage, site: preputial gland, lesion: adenoma, NOS + carcinoma, NOS + squamous-cell carcinoma, dosed 103 weeks, study length 106 weeks) amounted to 136 mg/kg/day.
`CC1(C)S[C@@H]2[C@H](NC(=O)COc3ccccc3)C(=O)N2[C@H]1C(=O)O`: the carcinogen call reads like this: (mouse, strain B6C3F1, females, by gavage, site: any site (literature study), lesion: several types, types named in the paper, dosed 104 weeks, study length 104 weeks) “negative (inactive)”; (mouse, strain B6C3F1, males, by gavage, site: any site (literature study), lesion: several types, types named in the paper, dosed 104 weeks, study length 104 weeks) “negative (inactive)”. Moreover, the TD50 was 10200 mg/kg/day (mouse, strain B6C3F1, females, by gavage, site: liver, lesion: hepatocellular adenoma + hepatocellular carcinoma + neoplastic nodule, dosed 104 weeks, study length 104 weeks); 16600 mg/kg/day (mouse, strain B6C3F1, females, by gavage, site: lung, lesion: alveolar/bronchiolar adenoma + alveolar/bronchiolar carcinoma, dosed 104 weeks, study length 104 weeks); 503 mg/kg/day (rat, strain Fischer 344, females, by gavage, site: any site (literature study), lesion: several types, types named in the paper, dosed 103 weeks, study length 104 weeks); 3650 mg/kg/day (rat, strain Fischer 344, females, by gavage, site: clitoral gland, lesion: adenoma, NOS, dosed 103 weeks, study length 104 weeks); 1360 mg/kg/day (inactive) (rat, strain Fischer 344, females, by gavage, site: thyroid gland, lesion: c-cell adenoma + c-cell carcinoma, dosed 103 weeks, study length 104 weeks); 1620 mg/kg/day (rat, strain Fischer 344, females, by gavage, site: thyroid gland, lesion: c-cell adenoma, dosed 103 weeks, study length 104 weeks). Further, the TD50 is, setting by setting: (rat, strain Fischer 344, males, by gavage, site: any site (literature study), lesion: several types, types named in the paper, dosed 103 weeks, study length 104 weeks) 544 mg/kg/day; (rat, strain Fischer 344, males, by gavage, site: liver, lesion: hepatocellular adenoma + hepatocellular carcinoma + neoplastic nodule, dosed 103 weeks, study length 104 weeks) 12200 mg/kg/day; (rat, strain Fischer 344, males, by gavage, site: pituitary gland, anterior, lesion: adenoma, NOS + carcinoma, NOS, dosed 103 weeks, study length 104 weeks) 874 mg/kg/day (inactive); (rat, strain Fischer 344, males, by gavage, site: pituitary gland, anterior, lesion: adenoma, NOS, dosed 103 weeks, study length 104 weeks) 949 mg/kg/day.
